Assay results from patent US4345938A, “Herbicidal 2-haloacetanilides” (Monsanto Company, priority 1980, dated 1982).
Read-outs that look alike come from different tables or passages of the source.

What was measured:
Assay type in all cases: in vivo
Wild Buckwheat = experiment: Pre-emergent herbicidal test, Wild Buckwheat; details: Table II; also: ranges in brackets are in %
Description: (§1) A good grade of top soil is placed in aluminum pans and compacted to a depth of three-eights to one-half inch from the top of the pan. On the top of the soil is placed a number of seeds or vegetative propagules of various plant species. The soil required to level fill the pans after seeding or adding vegetative propagules is weighted into a pan. The soil and a known amount of the active ingredient applied in a solvent or as a wettable powder suspension are thoroughly mixed, and used to cover the prepared pans. After treatment, the pans are moved into a greenhouse bench where they are watered by subirrigation as needed to give adequate moisture for germination and growth.
(§2) Approximately 2 weeks after seeding and treating, the plants were observed and the results recorded. The herbicidal rating was obtained by means of a fixed scale based on the percent injury of each plant species. The ratings are defined as follows: […]
(§3) The compounds were further tested by utilizing the above procedure on the following plant species: […]

Lambsquarters = experiment: Pre-emergent herbicidal test, Lambsquarters; also: ranges in brackets are in %
Description: as §1, §2

Rice [1] = experiment: Pre-emergent herbicidal test, Rice; details: Table II; also: ranges in brackets are in %
Description: as §1, §2, §3

Barnyardgrass = experiment: Pre-emergent herbicidal test, Barnyardgrass; also: ranges in brackets are in %
Description: as §1, §2

Soybean = experiment: Pre-emergent herbicidal test, Soybean; details: Table II; also: ranges in brackets are in %
Description: as §1, §2, §3

Quackgrass = experiment: Pre-emergent herbicidal test, Quackgrass; details: Table I; also: ranges in brackets are in %
Description: as §1, §2

Eleocharis kuroguwai = experiment: Greenhouse transplant rice test, EK; details: about 3 WAT, read-out: Percent Inhibition, EK
Description: The test procedure used in this greenhouse test is as follows: Ray silt loam top soil containing about 0.05% by weight of krillium and sifted through a […] screen is fumigated about 5-10 days prior to use. Pots are then filled with said Ray silt loam soil to a level to allow for a 1 in. (2.54 cm) flooding depth. Rice plants (Bluebelle) of 2 to 3 weeks age are transplanted to the pots and bulbs or seeds of the test weeds also planted in the pots. The pots are then flooded and the test chemical applied to the surface of the flood water. The flood water is reduced to allow for germination of the Echinochloa crus-galli (barnyardgrass) seed and subsequently reflooded and maintained in that condition. Observations of percent inhibition using a scale of 0-100% are made about 3 weeks after transplant (WAT).
(§4) The test data in Table III for all compounds was obtained under identical test conditions. The weeds used in the tests herein have the following abbreviations in the tables: Echinochloa crus-galli (EC), Monochloria vaginalis (MV), Cyperus Serotinus (CS), Eleocharis Kuroguwai (EK) and Sagittaria trifolia (ST).

Sugarbeet = experiment: Pre-emergent herbicidal test, Sugarbeet; details: Table II; also: ranges in brackets are in %
Description: as §1, §2, §3

Sagittaria trifolia = experiment: Field transplant rice test, applied 0 DAT, ST; details: 0 h, read-out: Percent Inhibition, ST; for inhibition at 375 g/ha: 0.375 Kg/Ha; for inhibition at 750 g/ha: 0.75 Kg/Ha; for inhibition at 1500 g/ha: 1.5 Kg/Ha; for inhibition at 3000 g/ha: 3.0 Kg/Ha
Protocol: as §4
(§5) In further comparative tests, a preferred compound of this invention (Example 1) was tested in the field with prior art Compounds A-D. These tests were conducted under conditions reflecting herbicide application times generally favorable to all herbicides in the test. The timing of application of herbicides to transplant rice is very important, whether, as in some instances, prior to transplanting the rice; in other instances, at the time of transplanting or else after transplanting. Application times are conventionally referred to as "days before transplant" (DBT) or "days after transplant" ("DAT"). The field test data in Table IV was obtained from a test in which the herbicides were applied at the time of transplant, i.e., "0 DAT", with observations being made weekly up to six weeks after transplant ("WAT") beginning at two weeks after transplant; for illustrative and representative purposes, only the early, middle and late period observations, i.e., 2 WAT, 4 WAT and 6 WAT, are shown in Table IV. The data in Table IV is for rates of application common to all herbicides in the test, i.e., from 3.0 kg/ha (2.67 lb/A) down to 0.375 kg/ha (0.34 lb/A). All herbicides were applied at their actual or expected use rates, i.e., as granules containing 2.5% by weight herbicide for the compound of Example 1, Compounds B, C and D and 5.0% by weight for Compound A.

Morningglory = experiment: Pre-emergent herbicidal test, Morningglory; also: ranges in brackets are in %
Description: as §1, §2

Rice [2] = experiment: Field transplant rice test, applied 0 DAT, rice injury; details: for inhibition at 375 g/ha / inhibition at 750 g/ha / inhibition at 1500 g/ha / inhibition at 3000 g/ha: Oryza sativa, 0 h, read-out: Percent Inhibition, Rice; for inhibition at 375 g/ha: 0.375 Kg/Ha; for inhibition at 750 g/ha: 0.75 Kg/Ha; for inhibition at 1500 g/ha: 1.5 Kg/Ha; for inhibition at 3000 g/ha: 3.0 Kg/Ha
Protocol: as §5

Wheat = experiment: Pre-emergent herbicidal test, Wheat; details: Table II; also: ranges in brackets are in %
Description: as §1, §2, §3

Q: What does the source list for `CCCCOc1cccc(CC)c1N(C)C(=O)CCl` [Example 1, N-methyl-2'-n-butoxy-6'-ethyl-2-chloroacetanilide]?
A: Rating, Wild Buckwheat (Wild Buckwheat; 0.006 kg/h): 0 (0-24); Rating, Wild Buckwheat (Wild Buckwheat; 0.01 kg/h): 1 (25-49); Rating, Wild Buckwheat (Wild Buckwheat; 0.06 kg/h): 1 (25-49); Rating, Wild Buckwheat (Wild Buckwheat; 0.28 kg/h): 1 (25-49); Rating, Wild Buckwheat (Wild Buckwheat; 1.12 kg/h): 2 (50-74); Rating, Wild Buckwheat (Wild Buckwheat; 5.6 kg/h): 3 (75-100); Rating, Lambsquarters (Lambsquarters; Table I, 5.6 kg/h): 3 (75-100); Rating, Lambsquarters (Lambsquarters; Table I, 11.2 kg/h): 3 (75-100); Rating, Lambsquarters (Lambsquarters; Table II, 0.006 kg/h): 0 (0-24); Rating, Lambsquarters (Lambsquarters; Table II, 0.01 kg/h): 0 (0-24); Rating, Lambsquarters (Lambsquarters; Table II, 0.06 kg/h): 0 (0-24); Rating, Lambsquarters (Lambsquarters; Table II, 0.28 kg/h): 2 (50-74); Rating, Lambsquarters (Lambsquarters; Table II, 1.12 kg/h): 3 (75-100); Rating, Lambsquarters (Lambsquarters; Table II, 5.6 kg/h): 3 (75-100); Rating, Rice (Rice [1]; 0.006 kg/h): 1 (25-49); Rating, Rice (Rice [1]; 0.01 kg/h): 1 (25-49); Rating, Rice (Rice [1]; 0.06 kg/h): 1 (25-49); Rating, Rice (Rice [1]; 0.28 kg/h): 3 (75-100); Rating, Rice (Rice [1]; 1.12 kg/h): 3 (75-100); Rating, Rice (Rice [1]; 5.6 kg/h): 3 (75-100); Rating, Barnyardgrass (Barnyardgrass; Table I, 5.6 kg/h): 3 (75-100); Rating, Barnyardgrass (Barnyardgrass; Table I, 11.2 kg/h): 3 (75-100); Rating, Barnyardgrass (Barnyardgrass; Table II, 0.006 kg/h): 1 (25-49); Rating, Barnyardgrass (Barnyardgrass; Table II, 0.01 kg/h): 2 (50-74); Rating, Barnyardgrass (Barnyardgrass; Table II, 0.06 kg/h): 3 (75-100); Rating, Barnyardgrass (Barnyardgrass; Table II, 0.28 kg/h): 3 (75-100); Rating, Barnyardgrass (Barnyardgrass; Table II, 1.12 kg/h): 3 (75-100); Rating, Barnyardgrass (Barnyardgrass; Table II, 5.6 kg/h): 3 (75-100); Rating, Soybean (Soybean; 0.006 kg/h): 0 (0-24); Rating, Soybean (Soybean; 0.01 kg/h): 0 (0-24); Rating, Soybean (Soybean; 0.06 kg/h): 0 (0-24); Rating, Soybean (Soybean; 0.28 kg/h): 0 (0-24); Rating, Soybean (Soybean; 1.12 kg/h): 0 (0-24); Rating, Soybean (Soybean; 5.6 kg/h): 1 (25-49); Rating, Quackgrass (Quackgrass; 5.6 kg/h): 3 (75-100); Rating, Quackgrass (Quackgrass; 11.2 kg/h): 3 (75-100); inhibition at 280 g/ha (Eleocharis kuroguwai; 0.28 Kg/Ha): 100%; inhibition at 560 g/ha (Eleocharis kuroguwai; 0.56 Kg/Ha): 100%; inhibition at 1120 g/ha (Eleocharis kuroguwai; 1.12 Kg/Ha): 100%; inhibition at 2240 g/ha (Eleocharis kuroguwai; 2.24 Kg/Ha): 100%; Rating, Sugarbeet (Sugarbeet; 0.006 kg/h): 0 (0-24); Rating, Sugarbeet (Sugarbeet; 0.01 kg/h): 0 (0-24); Rating, Sugarbeet (Sugarbeet; 0.06 kg/h): 0 (0-24); Rating, Sugarbeet (Sugarbeet; 0.28 kg/h): 1 (25-49); Rating, Sugarbeet (Sugarbeet; 1.12 kg/h): 2 (50-74); Rating, Sugarbeet (Sugarbeet; 5.6 kg/h): 3 (75-100); inhibition at 375 g/ha (Sagittaria trifolia; 2 WAT): 42%; inhibition at 375 g/ha (Sagittaria trifolia; 4 WAT): 8%; inhibition at 375 g/ha (Sagittaria trifolia; 6 WAT): 5%; inhibition at 750 g/ha (Sagittaria trifolia; 2 WAT): 43%; inhibition at 750 g/ha (Sagittaria trifolia; 4 WAT): 12%; inhibition at 750 g/ha (Sagittaria trifolia; 6 WAT): 8%; inhibition at 1500 g/ha (Sagittaria trifolia; 2 WAT): 30%; inhibition at 1500 g/ha (Sagittaria trifolia; 4 WAT): 8%; inhibition at 1500 g/ha (Sagittaria trifolia; 6 WAT): 5%; inhibition at 3000 g/ha (Sagittaria trifolia; 2 WAT): 47%; inhibition at 3000 g/ha (Sagittaria trifolia; 4 WAT): 22%; inhibition at 3000 g/ha (Sagittaria trifolia; 6 WAT): 18%; Rating, Morningglory (Morningglory; Table I, 5.6 kg/h): 2 (50-74); Rating, Morningglory (Morningglory; Table I, 11.2 kg/h): 1 (25-49); Rating, Morningglory (Morningglory; Table II, 0.006 kg/h): 0 (0-24); Rating, Morningglory (Morningglory; Table II, 0.06 kg/h): 0 (0-24); Rating, Morningglory (Morningglory; Table II, 0.28 kg/h): 0 (0-24); Rating, Morningglory (Morningglory; Table II, 1.12 kg/h): 2 (50-74); Rating, Morningglory (Morningglory; Table II, 5.6 kg/h): 3 (75-100); safety in rice (Rice [2]): safe in rice at rates above 1.5 kg/ha and slightly less than 3.0 kg/ha; inhibition at 375 g/ha (Rice [2]; 2 WAT): 10%; inhibition at 375 g/ha (Rice [2]; 4 WAT): 7%; inhibition at 375 g/ha (Rice [2]; 6 WAT): 5%; inhibition at 750 g/ha (Rice [2]; 2 WAT): 3%; inhibition at 750 g/ha (Rice [2]; 4 WAT): 0%; inhibition at 750 g/ha (Rice [2]; 6 WAT): 2%; inhibition at 1500 g/ha (Rice [2]; 2 WAT): 5%; inhibition at 1500 g/ha (Rice [2]; 4 WAT): 0%; inhibition at 1500 g/ha (Rice [2]; 6 WAT): 2%; inhibition at 3000 g/ha (Rice [2]; 2 WAT): 25%; inhibition at 3000 g/ha (Rice [2]; 4 WAT): 22%; inhibition at 3000 g/ha (Rice [2]; 6 WAT): 23%; Rating, Wheat (Wheat; 0.006 kg/h): 0 (0-24); Rating, Wheat (Wheat; 0.01 kg/h): 0 (0-24); Rating, Wheat (Wheat; 0.06 kg/h): 1 (25-49); Rating, Wheat (Wheat; 0.28 kg/h): 2 (50-74); Rating, Wheat (Wheat; 1.12 kg/h): 2 (50-74); Rating, Wheat (Wheat; 5.6 kg/h): 3 (75-100)
